In US10669272B2, “Substituted naphthyridinone compounds useful as T cell activators” (BRISTOL-MYERS SQUIBB COMPANY, priority 2018, dated 2020) one finds IC50 and EC50 data, which are given here for nine compounds.

Test [1] has as its target T1, human DGKα (Homo sapiens, UniProt P23743).
T1 construct: TVMV protease cleavage site (C); Hexa-His (C); made in house; host or cells: Sf9 insect cells (baculovirus, Bac-to-Bac)
In words: DGKα LIPGLO assay (extruded liposome substrate), in vitro DGK inhibition. The class given is biochemical. The settings on record: read-out: DGKa LIPGLO IC50.

In test [2] the target is T2, human DGKζ (Homo sapiens, UniProt Q13574).
T2 construct: TVMV protease cleavage site (C); Hexa-His (C); made in house; host or cells: Sf9 insect cells (baculovirus, Bac-to-Bac)
The test can be described thus: DGKζ LIPGLO assay (extruded liposome substrate), in vitro DGK inhibition. The class given is biochemical. The settings on record: read-out: DGKz LIPGLO IC50.

The subject of test [3] is OT-1 CD8+ T cells with SIINFEKL-loaded MC38 tumor cells. In words: Murine cytotoxic T lymphocyte assay (IFN-γ, OT-1 CTL with MC38 tumor cells). The class given is cell-based, mouse. The settings on record: read-out: msCTL INFg IC50. The text has this: 5. Murine Cytotoxic T Lymphocyte Assay
An antigen-specific cytolytic T-cell (CTL) assay was developed to evaluate functionally the ability of DGKα and DGKζ inhibitors to enhance effector T cell mediated tumor cell killing activity. CD8+ T-cells isolated from the OT-1 transgenic mouse recognize antigen presenting cells, MC38, that present the ovalbumin derived peptide […]. Recognition of the cognate antigen initiates the cytolytic activity of the OT-1 antigen-specific CD8+ T cells.
Functional CTL cells were generated as follows: OT-1 splenocytes from 8-12 week old mice were isolated and expanded in the presence of the […] peptide at 1 μg/mL and mIL2 at 10 U/mL. After three days, fresh media with […] was added. On day 5 of the expansion, the CD8+ T cells were isolated and ready for use. Activated CTL cells may be stored frozen for 6 months. Separately, one million MC38 tumor cells were pulsed with 1 μg/mL of […]-OVA peptide for 3 hours at 37° C. The cells were washed (3×) with fresh media to remove excess peptide. Finally, CTL cells that were pretreated with DGK inhibitors for 1 hour in a 96-well U bottom plate were combined with the antigen loaded MC38 tumor cells at a 1:10 ratio. The cells were then spun at 700 rpm for 5 min and placed in an incubator overnight at 37° C. After 24 hours, the supernatant was collected for analysis of IFN-γ cytokine levels by AlphaLisa purchased from Perkin Elmer.

For test [4], the system named is Human venous whole blood. In words: Human whole blood IFN-γ assay.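 Also: blood from healthy donors exposed to compound for 1 h before stimulation with anti-CD3 and anti-CD28 at 1 µg/mL each, IFN-γ quantified in supernatant by AlphaLISA.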 The class given is cell-based. The settings on record: human whole blood, read-out: INFg Whole Blood Normalized Agonist EC50.
Protocol: Human Whole Blood IFN-γ Assay
Human venous whole blood (22.5 μL per well), obtained from healthy donors, was pre-treated with compounds for one hour at 37° C. in a humidified 95% air/5% CO2 incubator. The blood was stimulated with 2.5 μL anti-human CD3 and anti-CD28 mAb at a final concentration of 1 μg/mL each for 24 hours at 37° C. IFN-γ in the supernatants was measured using AlphLISA kit (Cat # AL217).
Where [5] appears, read: normalized to 3 μM reference compound with anti-CD3 plus anti-CD28 as 100% activation.
Where [6] appears, read: Homo sapiens, 24 h, normalized to 3 μM reference compound with anti-CD3 plus anti-CD28 as 100% activation.
[7] abbreviates: Homo sapiens, 24 h, anti-CD3 plus anti-CD28, 24 hours, 3 μM reference compound = 100% activation.

Read-outs that look alike come from different tables or passages of the source.

The IC50 is the point on the concentration scale where inhibition reaches its midpoint. In general, EC50 refers to the concentration needed to bring the measured effect to its halfway point.

T2 sequence (Q13574 with tags, fused parts or gaps isoform Q13574-4): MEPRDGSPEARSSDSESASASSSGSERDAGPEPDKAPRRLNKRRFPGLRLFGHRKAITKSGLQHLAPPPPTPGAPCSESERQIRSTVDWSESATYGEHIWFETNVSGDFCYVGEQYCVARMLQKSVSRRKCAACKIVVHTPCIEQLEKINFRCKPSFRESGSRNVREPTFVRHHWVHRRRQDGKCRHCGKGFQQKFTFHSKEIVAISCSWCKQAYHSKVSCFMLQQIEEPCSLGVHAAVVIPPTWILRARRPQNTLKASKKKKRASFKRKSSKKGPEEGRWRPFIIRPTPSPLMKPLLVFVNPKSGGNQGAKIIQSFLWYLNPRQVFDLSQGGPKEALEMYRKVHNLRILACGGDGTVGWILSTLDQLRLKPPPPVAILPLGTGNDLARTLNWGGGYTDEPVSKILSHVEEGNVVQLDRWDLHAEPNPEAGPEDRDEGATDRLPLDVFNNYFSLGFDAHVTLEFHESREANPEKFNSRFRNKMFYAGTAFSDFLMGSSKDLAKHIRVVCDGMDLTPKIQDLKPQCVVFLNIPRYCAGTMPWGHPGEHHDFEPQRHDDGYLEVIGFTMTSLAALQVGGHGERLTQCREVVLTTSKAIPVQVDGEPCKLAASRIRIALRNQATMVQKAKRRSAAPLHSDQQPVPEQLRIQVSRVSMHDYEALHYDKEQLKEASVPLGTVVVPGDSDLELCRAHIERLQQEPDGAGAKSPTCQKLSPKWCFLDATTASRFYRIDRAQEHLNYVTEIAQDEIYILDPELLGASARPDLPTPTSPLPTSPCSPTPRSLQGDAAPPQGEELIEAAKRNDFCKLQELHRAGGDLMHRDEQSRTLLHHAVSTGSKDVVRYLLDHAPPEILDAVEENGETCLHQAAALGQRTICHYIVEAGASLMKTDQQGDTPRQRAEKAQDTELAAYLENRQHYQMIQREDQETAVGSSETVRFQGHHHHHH
T1 sequence (P23743 with tags, fused parts or gaps): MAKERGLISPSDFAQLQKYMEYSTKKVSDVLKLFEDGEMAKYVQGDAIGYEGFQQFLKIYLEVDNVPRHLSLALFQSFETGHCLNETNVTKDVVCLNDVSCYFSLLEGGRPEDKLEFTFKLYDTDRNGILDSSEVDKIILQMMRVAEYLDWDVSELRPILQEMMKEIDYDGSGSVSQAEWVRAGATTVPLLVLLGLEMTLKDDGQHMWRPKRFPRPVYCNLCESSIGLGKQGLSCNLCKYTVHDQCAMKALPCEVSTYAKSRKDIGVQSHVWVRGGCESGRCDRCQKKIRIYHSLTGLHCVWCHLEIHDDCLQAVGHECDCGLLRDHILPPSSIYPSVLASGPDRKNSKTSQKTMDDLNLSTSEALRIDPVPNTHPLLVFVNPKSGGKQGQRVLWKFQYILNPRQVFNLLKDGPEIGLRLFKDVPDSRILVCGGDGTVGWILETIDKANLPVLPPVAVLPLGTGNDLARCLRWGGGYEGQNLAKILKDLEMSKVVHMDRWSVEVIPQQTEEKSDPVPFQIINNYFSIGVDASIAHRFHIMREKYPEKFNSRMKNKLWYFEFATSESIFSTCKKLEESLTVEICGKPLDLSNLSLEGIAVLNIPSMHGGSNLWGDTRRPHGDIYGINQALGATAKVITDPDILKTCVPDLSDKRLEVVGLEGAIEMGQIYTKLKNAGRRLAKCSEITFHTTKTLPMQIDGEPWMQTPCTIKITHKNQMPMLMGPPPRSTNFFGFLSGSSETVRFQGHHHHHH

With `COC(=O)C1CN(c2cc(=O)n(C)c3ccc(C#N)nc23)CCN1C(c1ccc(F)cc1)c1ccc(F)cc1OC` (single isomer, unassigned) [Example 71, Methyl 4-(6-cyano-1-methyl-2-oxo-1,2-dihydro-1,5-naphthyridin-4-yl)-1-((4-fluoro-2-methoxyphenyl)(4-fluorophenyl)methyl)piperazine-2-carboxylate], the IC50 in test [1] (liposome (LIPGLO) assay) was found to be 240 µM; in test [2] (liposome (LIPGLO) assay), 52 µM; in test [3], 3.8 µM. In test [4] (setting [5]), the EC50 was 10 µM.

Take `Cn1c(=O)cc(N2CCN(C(c3ccc(F)cc3)c3ccc(F)cc3)C(C(C)(C)F)C2)c2nc(C#N)ccc21` (single isomer, unassigned) [Example 80, 8-(4-(bis(4-fluorophenyl)methyl)-3-(2-fluoropropan-2-yl)piperazin-1-yl)-5-methyl-6-oxo-5,6-dihydro-1,5-naphthyridine-2-carbonitrile]: the IC50 was determined as 0.67 µM in test [1] (liposome (LIPGLO) assay), 240 µM in test [2] (liposome (LIPGLO) assay) and 3.1 µM in test [3]. In test [4] (setting [6]), the EC50 turned out to be 10 µM.

With `Cc1ccc(C(C)N2CCN(c3c(C#N)c(=O)n(C)c4ccc(C#N)nc34)C[C@H]2C)cc1` (single isomer, unassigned) [Example 952], the IC50 in test [1] (DGKα liposome (LIPGLO) assay) stood at 0.59 µM; in test [2] (DGKζ liposome (LIPGLO) assay), 2.3 µM; in test [3] (murine CTL, IFN-γ), 5.9 µM. Moreover, in test [4] (setting [7]), the EC50 was found to be 3 µM.

In the case of `COc1cc(F)ccc1C(c1ccc(F)cc1)N1C[C@H](C)N(c2c([N+](=O)[O-])c(=O)n(C)c3ccc(C#N)nc23)C[C@H]1C` (single isomer, unassigned) [Example 122], the IC50 in test [1] (liposome (LIPGLO) assay) stood at 210 µM; in test [2] (liposome (LIPGLO) assay) it was 4.8 µM; in test [3] (Mus musculus, MC-38), 3.8 µM. Also, the EC50 in test [4] (setting [6]) came out at 10 µM.

In the case of `COc1cc(F)ccc1C(c1ccc(F)cc1)N1C[C@H](C)N(c2c(C#N)c(=O)n(C)c3ccc(C#N)nc23)C[C@H]1C` (single isomer, unassigned) [Example 112], the IC50 in test [1] (liposome (LIPGLO) assay) turned out to be 77 µM; in test [2] (liposome (LIPGLO) assay) it was 2.6 µM; in test [3] (Mus musculus, MC-38), 1.6 µM. The EC50 in test [4] (setting [6]) turned out to be 7 µM.

For the compound `Cc1ccc(C(c2ccc(F)cc2)N2C[C@H](C)N(c3cc(=O)n(C)c4ccc(C#N)nc34)C[C@H]2C)cc1` (single isomer, unassigned) [Example 251], the IC50 in test [1] (liposome (LIPGLO) assay) was 0.67 µM; in test [2] (liposome (LIPGLO) assay), 0.32 µM; in test [3] (Mus musculus, MC-38), 0.032 µM. For the same compound, the EC50 in test [4] (setting [6]) stood at 0.44 µM.

In the case of `COC(=O)C1CN(c2c(F)c(=O)n(C)c3ccc(C#N)nc23)CCN1C(c1ccc(F)cc1)c1ccc(F)cc1` (single isomer, unassigned) [Example 74, Methyl 1-(bis(4-fluorophenyl)methyl)-4-(6-cyano-3-fluoro-1-methyl-2-oxo-1,2-dihydro-1,5-naphthyridin-4-yl)piperazine-2-carboxylate], the IC50 in test [1] (liposome (LIPGLO) assay) was determined as 23 µM; in test [2] (liposome (LIPGLO) assay) it was 8.6 µM; in test [3], 0.29 µM. In addition, in test [4] (setting [6]), the EC50 stood at 8.6 µM.

Consider `C[C@@H]1CN(c2c(C#N)c(=O)n(C)c3ccc(C#N)nc23)CCN1Cc1ccc(F)cc1F` [Example 985], for which the IC50 worked out at 2.2 µM in test [1] (DGKα liposome (LIPGLO) assay); 3 µM in test [2] (DGKζ liposome (LIPGLO) assay); 4.1 µM in test [3] (Mus musculus, MC-38, murine CTL, IFN-γ). Further, in test [4] (setting [7]), the EC50 was 9.7 µM.

`CC1C(C)N(C(c2ccc(F)cc2)c2ccc(F)cc2)CCN1c1cc(=O)n(C)c2ccc(C#N)nc12` (single isomer, unassigned) [Example 124, 8-(4-(bis(4-fluorophenyl)methyl)-2,3-dimethylpiperazin-1-yl)-5-methyl-6-oxo-5,6-dihydro-1,5-naphthyridine-2-carbonitrile]: the IC50 in test [1] (liposome (LIPGLO) assay) turned out to be 9.9 µM; in test [2] (liposome (LIPGLO) assay), 15 µM; in test [3], 0.39 µM. Besides, the EC50 in test [4] (setting [5]) amounted to 4.8 µM.
